{"source": "patent US20260265370A1", "about": "“COMBINATION THERAPIES INVOLVING CLAUDIN 18.2 ANTAGONISTS FOR TREATMENT OF CANCER” (SUZHOU TRANSCENTA THERAPEUTICS CO., LTD., priority 2023, published 2026)", "origin": "cited, not measured here", "key": {"[1]": {"system": "CLDN18.2+/HER2− locally advanced or metastatic gastric or gastroesophageal junction (mG/GEJ) adenocarcinoma", "details": "cited from earlier work; for ORR: patients with measurable disease"}, "[2]": {"system": "unresectable advanced or recurrent gastric cancer", "details": "cited from earlier work"}, "advanced GC/GEJ cancer": {"system": "advanced GC/GEJ cancer", "details": "cited from earlier work"}, "[3]": {"details": "CLDN18.2 ≥75% tumor cell staining 2+ or 3+"}, "[4]": {"details": "zolbetuximab+CAPOX vs PBO+CAPOX"}}, "note": "Where two headings read alike, the source gives them in different places."}
{"substance": "Zolbetuximab + CAPOX: GLOW arm: zolbetuximab plus capecitabine and oxaliplatin", "values": [{"measurement": "mDoR", "setting": "[1]; [3]", "value": 6.28, "unit": "months"}, {"measurement": "mPFS", "setting": "[1]; [3]", "value": 8.21, "unit": "months"}, {"measurement": "ORR", "setting": "[1]; [3]", "value": 53.8, "unit": "%"}, {"measurement": "ORR", "setting": "[1]; CLDN18.2 ≥75% tumor cell staining 2+ or 3+, listed as Zolbetuximab+CAPOX", "value": 53.8, "unit": "%"}, {"measurement": "ORR", "setting": "[1]; CLDN18.2 ≥75% tumor cell staining 2+ or 3+, listed as zolbetuximab+CAPOX", "value": 53.8, "unit": "%"}, {"measurement": "OS median", "setting": "[1]; in vivo", "value": 14.39, "unit": "mo"}, {"measurement": "TEAE decreased appetite", "setting": "[1]; in vivo", "value": 41.3, "unit": "%"}, {"measurement": "TEAE nausea", "setting": "[1]; in vivo", "value": 68.5, "unit": "%"}, {"measurement": "TEAE vomiting", "setting": "[1]; in vivo", "value": 66.1, "unit": "%"}, {"measurement": "drug-related TEAEs leading to death", "setting": "[1]; in vivo", "value": 2.4, "unit": "%"}, {"measurement": "grade ≥3 TEAEs", "setting": "[1]; in vivo", "value": 72.8, "unit": "%"}, {"measurement": "serious TEAEs", "setting": "[1]; in vivo", "value": 47.2, "unit": "%"}, {"measurement": "HR of OS", "setting": "[1]; [4]", "value": 0.771}, {"measurement": "HR of PFS", "setting": "[1]; [4]", "value": 0.687}]}
{"substance": "Nivolumab: PD-1 checkpoint inhibitor", "values": [{"measurement": "ORR", "setting": "[2]; in vivo", "value": 11, "unit": "%"}, {"measurement": "12-month OS rate", "setting": "[2]; n=330", "value": 26.2, "unit": "%"}, {"measurement": "overall survival (OS)", "setting": "[2]; progressed after two or more chemotherapy regimens", "value": 5.26, "unit": "months"}, {"measurement": "HR of OS", "setting": "[2]; vs placebo", "value": 0.63}]}
{"substance": "Zolbetuximab: first-in-class, chimeric monoclonal antibody specific to a CLDN18.2 epitope", "values": [{"measurement": "tolerability", "setting": "advanced GC/GEJ cancer; in vivo", "value": "well-tolerated"}, {"measurement": "ORR", "setting": "advanced GC/GEJ cancer; phase IIa monotherapy, strong CLDN18.2 expression, ≥2+ staining intensity in 70% of tumor cells", "value": 14, "unit": "%"}]}
